Legend:
Type in all cases: functional
[1] = tested on: Mus musculus; assay: Antiinflammatory activity against TPA-induced ear edema in BALB/c mouse assessed as weight of ear punches at 5 mM administered topically for 15 mins prior to TPA challenge and measured after 3 hrs (reference value: 8.3 +/- 0.1 mg)
[2] = tested on: Mus musculus; assay: Antiinflammatory activity against TPA-induced ear edema in BALB/c mouse assessed as weight of ear punches at 5 mM administered topically for 15 mins prior to TPA challenge and measured after 6 hrs (reference value: 12.5 +/- 0.3 mg)
[3] = tested on: Mus musculus; assay: Antiinflammatory activity against TPA-induced ear edema in BALB/c mouse assessed as weight of ear punches at 5 mM administered topically for 15 mins prior to TPA challenge and measured after 12 hrs (reference value: 12.4 +/- 0.1 mg)
[4] = tested on: Mus musculus; assay: Antiinflammatory activity against TPA-induced ear edema in BALB/c mouse assessed as weight of ear punches at 5 mM administered topically for 15 mins prior to TPA challenge and measured after 24 hrs (reference value: 12.1 +/- 0.2 mg)
[5] = tested on: Mus musculus; assay: Antiinflammatory activity against TPA-induced ear edema in BALB/c mouse assessed as weight of ear punches at 5 mM administered topically for 15 mins prior to TPA challenge and measured after 48 hrs (reference value: 11.4 +/- 0.3 mg)

Work on `C[C@]12C=CC(=O)C=C1CC[C@@H]1[C@@H]2[C@@H](O)C[C@@]2(C)[C@H]1CC[C@]2(O)C(=O)CO` [PREDNISOLONE] yielded an Activity [1] of 5.4 mg, an Activity [2] of 5.6 mg and an Activity [3] of 5.7 mg. It also gave an Activity [4] of 5.6 mg and an Activity [5] of 5.6 mg.

Reference: ChEMBL document CHEMBL4257551, “Glycyrrhizic acid from licorice down-regulates inflammatory responses via blocking MAPK and PI3K/Akt-dependent NF-κB signalling pathways in TPA-induced skin inflammation” (2018)
